Format in all cases: in vivo
The test system of data set [1] is Soybean plants. As to the kind of experiment: Foliar spray assay, soybean plants. Conditions: 1% foliar spray; for phytotoxic effects on soybean plants (words), foliar spray: 1-month old soybean plants, up to 14 days after exposure; for chlorosis / leaf death: soybean plants. On the procedure: Soybean plants were planted under 1 cm of potting soil and watered every 2-3 days as necessary. Plants were grown in pots (6″ wide×4.5″ deep) with approximately 800 mL of soil for each plant. Plants germinated approximately 3-5 days after being planted. Plants were grown in a greenhouse under a constant temperature and light environment (25±5° C., 12 hr:12 hr light:dark cycle). Plants were grown until reaching 4 weeks old and were then used for the foliar spray experiment.
Formulations were made to include 1% thymyloxyacetic acid, 0.269% potassium hydroxide, and 0.25% Triton-X 100™. Soybean plants were sprayed with 10 mists from a MAINStays™ Ironing Spray bottle set to the mist setting. This corresponded to the minimum amount necessary to cause dripping from the leaves of the plants. […] Plants were placed under high intensity light (directly below greenhouse lamps) and low intensity light (not under lamp/ambient light environment). Light intensity was chosen as a factor for this experimental design. […] This effect is greatly diminished under low intensity light conditions. If thymyloxyacetic acid is causing phytotoxicity in the same mechanism of action as other plant terpenoids, there should be a drastic difference in the phytotoxicity among these different levels of light intensity.

A further data set has as its system soybeans. As to the kind of experiment: Pre-emergence assay, soybean. The following applies: for pre-emergent effect on soybeans (words): 1%, 3-weeks after application; for qualitative growth assessment, pre-emergence: Soy, soil treated with 40 ml of 1% solution 1 day after planting, 3 weeks after application. The method, then:
Soybean plants were planted under 1 cm of potting soil and watered every 2-3 days as necessary. Plants were grown in pots (6″ wide×4.5″ deep) with approximately 800 mL of soil for each plant. Plants germinated approximately 3-5 days after being planted. Plants were grown in a greenhouse under a constant temperature and light environment (25±5° C., 12 hr: 12 hr light: dark cycle).
1-day after seeds/beans were planted, soil was drenched with 40 ml of formulation with 1% active ingredient. This was done to assess germination inhibition in the soil. […] Qualitative growth assessment was made by comparing the treated plants to the untreated controls.

Data set [2] has as its system Pigweed (Amaranthus palmeri). As to the kind of experiment: Weed soil drench assay, pigweed. Conditions: for Percentage mortality: Pigweed, 40 mL of 5% solution, soil drench; for chlorosis and phytotoxicity: pigweed, 40 ml of 5%, 2 days after application. The method, then:
Pigweed plants were obtained from the wild in prairie fields in Iowa. Plants were carefully transplanted into pots (6″ wide×4.5″ deep) with approximately 800 mL of soil for each plant. Plants were maintained in a greenhouse under a constant temperature and light environment (25±5° C., 12 hr: 12 hr light: dark cycle). Plants were watered every 2-3 days as needed.
(§1) Formulations of the various active ingredients were created using the monoterpenoid derivatives, potassium hydroxide, and Triton-X 100™ to aid in the solvation of the active ingredient. Formulations included 5% active ingredient by weight (0.5-1 g/100 ml water), with a 1:1 molar ratio of potassium hydroxide used to aid in the solvation (135-269 mg/100 mL for both thymyloxyacetic acid and carvacryloxyacetic acid). […] Observations were performed 2 days and 3 weeks after soil drench to determine the effects of the treatments on the various types and stages of plants. Phytotoxicity is reported as percentage of total plants treated compared to a control treatment that was exposed to a similar formulation (without the active monoterpenoid derivatives).

Data set [3] deals with Lamb's Quarters (Chenopodium album). As to the kind of experiment: Weed soil drench assay, lamb's quarters. The following applies: for Percentage mortality: Lamb's quarters, 40 mL of 5% solution, soil drench; for chlorosis and phytotoxicity: lamb's quarters, 40 ml of 5%, two days after application. The method, then:
Lamb's quarters seeds were obtained from the Department of Agronomy at Iowa State University. Individual seeds were sown for each pot (6″ wide×4.5″ deep) with approximately 800 mL of soil for each plant. Only plants that germinated were used for the study. Plants were treated 1-2 weeks post emergence. Plants were watered every 2-3 days as needed.
as §1

The test system of data set [4] is Waterhemp (Amaranthus tuberculatus). As to the kind of experiment: Toxicity assay (probit LC50), waterhemp. From the text: Waterhemp seeds were obtained from the Department of Agronomy at Iowa State University. Individual seeds were sown for each pot (1.5″ wide×3″ deep) with approximately 7.5 g of soil for each plot. Five seeds/plot was sown into numerous plots. After one month of germination, germinated plants were counted in each plot and this number was used for the total number of plants challenged per plot in the toxicity assessment.
(§2) The total number of plants were counted in each plot in 24×6 hexagonal small plot planter tray. The number of germinated seeds in each plot was enumerated after one month, and for each plot this number was recorded and used as the total for each plot. Differing concentrations of thymyloxyacetic acid was applied in 5% Triton-X 100 and 1:1 molar ratio potassium hydroxide:thymyloxyacetic acid to aid in the solubility of the compound in water. Ten mL of solution was applied to each plot, and the mortality of the plants was assessed at 3 days and 2 weeks post application (for some treatments). Mortality at these time points were enumerated out of the total plants germinated in each plot at the beginning of the assay. At both time points, the total number of dead plants and total number of plants at the beginning of the assay were recorded for each observation. A Probit model was used to calculate the LC50 values for each of the compounds explored in this assay. A formulation control (with no active ingredient) was screened against a number of plants and factored into the final probit model. This formulation control had little-to-no effect by itself.

Data set [5] deals with Cocklebur (Xanthium spp.). As to the kind of experiment: Toxicity assay (probit LC50), cocklebur.
Text: Cocklebur burs were obtained from the Department of Agronomy at Iowa State University. Individual seeds were sown for each pot (1.5″ wide×3″ deep) with approximately 7.5 g of soil for each plot. One bur/plot was sown into numerous plots. After one month of germination, germinated plants were counted in each plot and this number was used for the total number of plants challenged per plot in the toxicity assessment.
as §2

In data set [6] the test system is treated weeds from each species. As to the kind of experiment: Weed soil drench assay, all treated weed species. Conditions: 5% soil drench; observed at two days after the initial treatment. The method, then: as §1
In data set [7] the test system is Soybean plants. As to the kind of experiment: Soil drench assay, soybean plants. More on the design: key: NOE: No Observable Effect; XXX: Dead; -: the lowest phytotoxic effect; --: phytotoxicity that did not result in death; ---: phytotoxicity that did not result in death; ------: the highest. Conditions: 3-weeks after treatment, Old Plants, 7%, 40 mL.
A further data set relates to Wood sorrel. As to the kind of experiment: Foliar spray, wood sorrel. Conditions: 20 sprays of 1%; observed 2 days after exposure and later. The method, then: Wood sorrel on the ground of the greenhouse was also treated with active ingredient in order to better assess the effects of foliar treatments on multiple plant species. A patch of wood sorrel was (approximately 4′×3′) was treated with 20 sprays (mist setting) from a MAINStays ironing spray bottle. Effects of the spray were recorded 2 days after exposure.

“Also recorded” adds a separate entry of the source.

As to `Cc1ccc(C(C)C)c(OCC(=O)O)c1` [thymyloxyacetic acid, 2-(2-isopropyl-5-methylphenoxy)acetic acid], the “phytotoxic effects on soybean plants (words), foliar spray” value with Soybean plants [1] is “significant chlorosis and wilting”; in the data set with Soybean plants [1] (listed as Thymyloxyacetic acid), “significant phytotoxic effects”. The chlorosis result in the data set on Soybean plants [1] (High intensity light) and in the data set with Soybean plants [1] (Low intensity light) was “✓” each time. For the same molecule, the leaf death result in the data set on Soybean plants [1] (High intensity light) and with Soybean plants [1] (Low intensity light) was “✓” in each case. Further, the results for the “pre-emergent effect on soybeans (words)” value in the data set with soybeans and in the data set on soybeans (listed as Thymyloxyacetic acid) were “most susceptible” and “major inhibition of growth”, respectively. For the same molecule, the “qualitative growth assessment, pre-emergence” value in the data set on soybeans was “− − −”. Moreover, the Percentage mortality in data set [2] (2-days after treatment), in data set [2] (3-weeks after treatment), in data set [3] (2-days after treatment) and in data set [3] (3-weeks after treatment) was 100% throughout. Besides, the “chlorosis and phytotoxicity” value in data set [2] was “significant chlorosis and phytotoxicity”; in data set [3], “significant chlorosis and phytotoxicity”. Further, the “LC50 Value” in [4] (Waterhemp) is recorded as 700 ppm; in data set [5] (Cocklebur), 1530 ppm. Also, the “Selective Toxicity Compared to Bluegrass” value in data set [4] (Waterhemp compared to bluegrass) turned out to be 5; in data set [5] (Cocklebur compared to bluegrass), 2.29. For the same molecule, in data set [6], the “treated weeds killed, each species” value is reported as 100%. The “phytotoxicity (qualitative), soil drench” value with Soybean plants [7] is on record as “XXX”.

Take `Cc1ccc(C(C)C)cc1OCC(=O)O` [carvacryloxyacetic acid, 2-(5-isopropyl-2-methylphenoxy)acetic acid]: the “phytotoxic effect on wood sorrel, foliar spray” value with Wood sorrel is “Death followed quickly after 2 days post-exposure; also recorded: immediate and widespread chlorosis followed by relatively quick plant death”. Also, the “pre-emergent effect on soybeans (words)” value in the data set on soybeans was “completely prevented from growing”; in the data set on soybeans (listed as Carvacryloxyacetic acid) it was “prevented the emergence of soybean plants entirely”. In the data set on soybeans, the “qualitative growth assessment, pre-emergence” value was “XXX (plant death)”. In addition, the Percentage mortality in [2] (2-days after treatment), in [2] (3-weeks after treatment), in [3] (2-days after treatment) and in data set [3] (3-weeks after treatment) was 100% throughout. Besides, the “chlorosis and phytotoxicity” value is “significant chlorosis and phytotoxicity” in data set [2]; “significant chlorosis and phytotoxicity” in data set [3]. Further, the “treated weeds killed, each species” value in data set [6] was found to be 100%. In the data set with Soybean plants [7], the “phytotoxicity (qualitative), soil drench” value was “XXX”.
